Literature values, collected in patent publication US20250170053A1, “LONG-LASTING RESORBABLE SUBCUTANEOUS IMPLANT WITH PROLONGED RELEASE OF PRE-CONCENTRATED PHARMACOLOGICALLY ACTIVE SUBSTANCE IN A POLYMER FOR THE ADJUVANT TREATMENT OF EPILEPSY, CHRONIC PAIN AND ANXIETY, AND METHOD” (priority 2022, published 2025).

Legend:
[1] = tested on: patients with treatment-resistant epilepsy; details: 2 to 50 mg/kg/day oral CBD, twelve weeks
[2] = tested on: rodents; details: systemic administration
[3] = tested on: healthy volunteers and patients with anxiety disorders; details: inverted U-shaped dose-response curve in humans

Structure (SMILES): C=C(C)[C@@H]1CCC(C)=C[C@H]1c1c(O)cc(CCCCC)cc1O [CBD, cannabidiol]
- individuals who discontinued treatment due to some adverse event [1]: 3%
- safety and tolerability of the drug [1]: acceptable
- average reduction in seizure frequency ([1]; adjunctive therapy, patients aged one to thirty years): 36.5%
- effect in the elevated plus-maze test [2]: antianxiety effects
- anxiolytic activity [3]: significant anxiolytic activity
